Here are results for 6 compounds from ChEMBL document CHEMBL5352392, “Design, synthesis, and biological evaluation of novel dual inhibitors of heat shock protein 90/mammalian target of rapamycin (Hsp90/mTOR) against bladder cancer cells” (Eur J Med Chem, 2022).

For assay [1], the target named is T1, Heat shock protein HSP90 (Homo sapiens, UniProt P07900+P08238). The settings on record: dose 100.0 nM.
Description: Inhibition of Hsp90 (unknown origin) at 100 nM by TR-FRET assay relative to control
The subject of assay [2] is T-24. Nature of the assay: Antiproliferative activity against human T24 cells assessed as inhibition of cell proliferation at 1 uM by CCK8 assay relative to control. In kind it is functional. Background: Tetrazolium assays rely on reduction of a dye to a coloured formazan, in cell work by metabolically active cells.
Assay [3] has as its target T2, Serine/threonine-protein kinase mTOR (Homo sapiens, UniProt P42345). Nature of the assay: Inhibition of mTOR (unknown origin) at 100 nM by kinase profiling assay relative to control.
Assay [4] concerns J82. Nature of the assay: Antiproliferative activity against human J82 cells assessed as inhibition of cell proliferation at 1 uM by CCK8 assay relative to control. In kind it is functional.
Assay [5] has as its system SW780. Briefly: Antiproliferative activity against human SW780 cells assessed as inhibition of cell proliferation at 1 uM by CCK8 assay relative to control. In kind it is functional.
The target in assay [6] is T2, Serine/threonine-protein kinase mTOR. Briefly: Inhibition of mTOR (unknown origin) by kinase profiling assay.
For assay [7], the target named is Phosphatidylinositol 4,5-bisphosphate 3-kinase catalytic subunit alpha isoform (Homo sapiens, UniProt P42336). Briefly: Inhibition of PI3Kalpha (unknown origin) by kinase profiling assay.
Assay [8] deals with T-24. Briefly: Antiproliferative activity against human T24 cells assessed as inhibition of cell proliferation by CCK8 assay. It is filed as functional, cell-based.
Assay [9] relates to J82. Nature of the assay: Antiproliferative activity against human J82 cells assessed as inhibition of cell proliferation by CCK8 assay. It is filed as functional, cell-based.
The subject of assay [10] is SW780. Briefly: Antiproliferative activity against human SW780 cells assessed as inhibition of cell proliferation by CCK8 assay. In kind it is functional, cell-based.
For assay [11], the target named is T1, Heat shock protein HSP90. Nature of the assay: Inhibition of Hsp90 (unknown origin) by TR-FRET assay. In kind it is protein assay. (In TR-FRET formats the signal depends on donor and acceptor labels being close together.)

Molecules are shown by their SMILES.

Chain of Phosphatidylinositol 4,5-bisphosphate 3-kinase catalytic subunit alpha isoform (P42336 whole entry, canonical isoform): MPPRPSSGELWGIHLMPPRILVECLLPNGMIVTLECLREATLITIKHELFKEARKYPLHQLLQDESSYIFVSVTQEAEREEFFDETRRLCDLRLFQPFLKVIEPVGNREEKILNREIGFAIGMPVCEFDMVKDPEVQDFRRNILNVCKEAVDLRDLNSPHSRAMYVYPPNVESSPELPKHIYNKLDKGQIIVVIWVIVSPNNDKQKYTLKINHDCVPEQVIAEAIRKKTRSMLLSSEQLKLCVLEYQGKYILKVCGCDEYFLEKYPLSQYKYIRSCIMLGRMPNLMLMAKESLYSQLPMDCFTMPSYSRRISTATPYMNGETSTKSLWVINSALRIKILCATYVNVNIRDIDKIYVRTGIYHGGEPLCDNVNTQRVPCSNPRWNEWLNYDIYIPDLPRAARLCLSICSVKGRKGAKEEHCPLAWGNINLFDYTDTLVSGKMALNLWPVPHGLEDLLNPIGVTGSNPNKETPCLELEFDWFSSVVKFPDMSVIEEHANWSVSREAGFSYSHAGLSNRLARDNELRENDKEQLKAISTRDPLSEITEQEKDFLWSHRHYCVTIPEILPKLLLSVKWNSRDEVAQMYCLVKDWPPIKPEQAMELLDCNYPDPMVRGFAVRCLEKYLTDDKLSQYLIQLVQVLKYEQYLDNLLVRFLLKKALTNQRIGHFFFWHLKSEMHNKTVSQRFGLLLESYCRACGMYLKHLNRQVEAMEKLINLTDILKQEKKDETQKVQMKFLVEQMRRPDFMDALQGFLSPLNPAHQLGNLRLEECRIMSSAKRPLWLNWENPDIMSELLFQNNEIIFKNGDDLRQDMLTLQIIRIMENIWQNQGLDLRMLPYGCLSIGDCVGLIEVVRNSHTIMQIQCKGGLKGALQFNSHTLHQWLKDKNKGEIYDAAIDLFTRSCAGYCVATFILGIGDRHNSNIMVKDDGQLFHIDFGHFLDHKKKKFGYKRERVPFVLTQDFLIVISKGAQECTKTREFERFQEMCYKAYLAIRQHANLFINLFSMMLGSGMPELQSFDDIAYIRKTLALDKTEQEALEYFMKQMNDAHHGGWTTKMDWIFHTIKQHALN

Take `CC(C)c1cc(C(=O)N2CCc3c(sc4nc(-c5ccc(NC(=O)Nc6ccc(Cl)cc6)cc5)nc(N5CCOCC5)c34)C2)c(O)cc1O`: the inhibition was determined as 66.5% against Heat shock protein HSP90 [1] and 77.3% in [3]. The inhibition at 1 µM with T-24 [2] was determined as 86%; in the assay on J82 [4], 83.9%; with SW780 [5], 83.2%.
Consider `Cc1ccccc1NC(=O)Nc1ccc(-c2nc(N3CCOCC3)c3c4c(sc3n2)CN(C(=O)c2cc(C(C)C)c(O)cc2O)CC4)cc1`, for which the inhibition was 62.6% against Heat shock protein HSP90 [1] and 68.2% in assay [3]. Further, the inhibition at 1 µM in the assay with T-24 [2] stood at 78%; in the assay on J82 [4], 66.2%; in the assay with SW780 [5] it was 53.7%.
With `CC(C)c1cc(C(=O)N2CCc3c(sc4nc(-c5ccc(NC(=O)Nc6cccc(C(F)(F)F)c6)cc5)nc(N5CCOCC5)c34)C2)c(O)cc1O`, the IC50 in assay [6] came out at 218 nM; in [7], 2450 nM; with T-24 [8], 940 nM; in the assay with J82 [9], 2760 nM; in the assay with SW780 [10], 660 nM; on Heat shock protein HSP90 [11] it was 126 nM. Moreover, the results for the inhibition (on Heat shock protein HSP90 [1]; in [3]) were 73.8% and 66.3%, respectively. Further, the inhibition at 1 µM in the assay with T-24 [2] was 82.5%; in the assay with J82 [4], 69.1%; with SW780 [5], 65.6%.
For the compound `COc1ccc(-c2ccc3c(N4CCOC[C@@H]4C)nc(N4CCOC[C@@H]4C)nc3n2)cc1CO` [AZD-8055], the IC50 turned out to be 4450 nM in assay [7], 540 nM in the assay on T-24 [8], 650 nM in the assay on J82 [9] and 810 nM in the assay on SW780 [10]. Further, the inhibition at 1 µM in the assay on T-24 [2] was determined as 73.3%; in the assay on J82 [4] it was 72.4%; in the assay with SW780 [5] it was 79.6%. For the same compound, in assay [3], the inhibition was determined as 93.3%.
`CCNC(=O)Nc1ccc(-c2nc(N3CCOCC3)c3c4c(sc3n2)CN(C(=O)c2cc(C(C)C)c(O)cc2O)CC4)cc1`: the values for the inhibition (at Heat shock protein HSP90 [1]; in assay [3]) were 62.2% and 68.6%, respectively. Further, the inhibition at 1 µM is 57.9% with T-24 [2], 67.6% in the assay with J82 [4] and 70.2% in the assay on SW780 [5].
The corresponding values for `CC(C)c1cc(C(=O)N2CCc3c(sc4nc(N5CCOC(F)(F)C5)nc(N5CCOCC5)c34)C2)c(O)cc1O` are 53.8%, 57.6%, 63.8%, 62.7% and 58.8%.

As usually defined, the inhibition is the relative decrease from the control value, in per cent. As a reminder, the IC50 is the point on the concentration scale where inhibition reaches its midpoint.
